Measured values taken from US9526680B2, “Method for searching for malodor control agent, malodor control agent, and malodor control method” (Kao Corporation, priority 2010, dated 2016).

molecular target: T1, OR51I2 (Homo sapiens, UniProt Q9H344); test: Luciferase reporter gene assay, OR51I2 expressed in HEK293 cells; format: cell-based; conditions: response to hexanoic acid; test substance added together with hexanoic acid; HEK293
T1 construct: expressed in transfected cells; host or cells: HEK293
T1 sequence (Q9H344 1-312): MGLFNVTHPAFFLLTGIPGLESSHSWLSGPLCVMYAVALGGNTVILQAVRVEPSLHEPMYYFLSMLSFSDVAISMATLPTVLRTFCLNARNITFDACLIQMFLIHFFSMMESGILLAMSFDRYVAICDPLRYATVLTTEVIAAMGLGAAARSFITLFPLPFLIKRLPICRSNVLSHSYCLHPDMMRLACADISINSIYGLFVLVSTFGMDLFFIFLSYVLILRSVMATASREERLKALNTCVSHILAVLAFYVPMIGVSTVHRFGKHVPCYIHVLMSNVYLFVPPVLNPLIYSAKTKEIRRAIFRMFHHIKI
Procedure: (§1) Cloning of human olfactory receptors was performed based on the sequence information registered in GenBank, through PCR with human genomic DNA female (G1521: Promega) as a template. Each of the genes amplified through PCR was inserted into a pENTR vector (Invitrogen) according to an instruction manual. Then, the gene-inserted vector was digested with NotI and AscI, and the obtained fragments were inserted into NotI and AscI sites located downstream of the Flag-Rho tag sequence in the pME18S vector.
(§2) Each of the 350 types of human olfactory receptors was expressed in HEK293 cells. A reaction solution having a composition shown in Table 2 was prepared on a clean bench, and left to stand for 15 minutes. The solution was dispensed to each well of a 96-well plate (BD). Subsequently, […] cells (100 μL, 3×10^5 cells/cm^2) were seeded in each well and cultured for 24 hours in an incubator at 37° C. and under 5% CO2 conditions.
(§3) The olfactory receptor expressed in HEK293 cell was conjugated with cell-intrinsic Gas to activate adenylate cyclase, and thereby the level of intracellular cAMP was increased. For the measurement of the response to odor in this study, the luciferase reporter gene assay was used, in which an increase in the amount of intracellular cAMP was monitored by using the emission value originating from firefly luciferase gene (fluc2P-CRE-hygro) as an indicator. Furthermore, a gene product obtained by fusing renilla luciferase gene in the downstream of CMV promoter (hRluc-CMV) was simultaneously introduced, and this was used as an internal standard for correcting an error in the transgenesis efficiency or the number of cells. The medium was removed from the culture prepared in the above-described section 3) by using a Pipetman, and 75 μl of a solution containing an odor substance (1 mM hexanoic acid or 300 μM nonanoic acid) prepared in CD293 medium (Invitrogen) was added thereto. The cells were cultured for 4 hours in a CO2 incubator, and the luciferase gene was sufficiently expressed in the cells. For the measurement of luciferase activity, the measurement was carried out by using a Dual-Glo™ luciferase assay system (Promega) according to the operation manual of the product. A value calculated by dividing the emission value, derived from a firefly luciferase induced by the stimulation with an odor substance, by the emission value in cells that were not-stimulated with an odor substance, was designated as a fold increase, and used as an index of response intensity.
(§4) OR2W1, OR10A6, OR51E1, OR51I2, and OR51L1 were respectively expressed in HEK293 cells by the same method as that used in Example 1, and a luciferase assay was carried out. In the luciferase assay, hexanoic acid was used as the odorous substance, and test substances were added together with hexanoic acid. The response of the olfactory receptors to hexanoic acid was measured, and a decrease in the receptor response to the addition of test substances was evaluated.
(§5) The inhibition ratios of the receptor response to test substances were calculated as follows. The emission value (Y) obtained from the cells in which the same receptors were introduced but no odor stimulation was conducted, was subtracted from the emission value derived from firefly luciferase (X) induced by odor stimulation with hexanoic acid alone. Similarly, the emission value (Y) obtained from the cells in which no odor stimulation was conducted, was subtracted from the emission value (Z) caused by stimulation with a mixture of hexanoic acid and a test substance. By the following calculation formula, the inhibitory activity of the test substance to receptor response was calculated based on the increment of the emission value (X−Y) caused by stimulation of hexanoic acid alone. Multiple independent experiments were performed in duplicate, and the average of each experiment was obtained. Inhibition ratio (%)={1−(Z−Y)/(X−Y)}×100 […]

Row | Compound | Inhibition ratio of OR51I2 response
1 | COC(C)(C)CCCC(C)CC=O (stereo not shown) [Methoxycitronellal, 7-methoxy-3,7-dimethyloctanal] | 1 (Inhibition ratio: 50% or higher)
2 | CC(C)Cc1ccc(CC(C)C=O)cc1 (stereo not shown) [Suzaral, 3-(4-isobutylphenyl)-2-methyl-propionaldehyde] | 2 (Inhibition ratio: 20% to 50%)

molecular target: T2, OR51E1 (Homo sapiens, UniProt Q8TCB6); test: Luciferase reporter gene assay, OR51E1 expressed in HEK293 cells; format: cell-based; conditions: response to hexanoic acid; test substance added together with hexanoic acid; HEK293
T2 construct: expressed in transfected cells; host or cells: HEK293
T2 sequence (Q8TCB6 1-318): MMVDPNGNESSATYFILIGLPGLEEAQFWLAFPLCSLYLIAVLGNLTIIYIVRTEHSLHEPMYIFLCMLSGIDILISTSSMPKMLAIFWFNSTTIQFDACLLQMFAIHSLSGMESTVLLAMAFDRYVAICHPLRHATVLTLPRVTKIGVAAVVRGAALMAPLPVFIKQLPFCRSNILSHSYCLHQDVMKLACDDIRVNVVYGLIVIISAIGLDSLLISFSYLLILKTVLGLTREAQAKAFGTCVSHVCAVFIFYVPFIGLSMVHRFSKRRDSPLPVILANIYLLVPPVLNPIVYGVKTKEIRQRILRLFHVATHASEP
Procedure: as §1, §2, §3, §4, §5

Row | Compound | Inhibition ratio of OR51E1 response
3 | CC(C)=CCCC(C)CC=O (stereo not shown) [Citronellal, 3,7-dimethyl-6-octenal] | 2 (Inhibition ratio: 20% to 50%)
4 | COC(C)(C)CCCC(C)CC=O (stereo not shown) [Methoxycitronellal, 7-methoxy-3,7-dimethyloctanal] | 1 (Inhibition ratio: 50% or higher)
5 | CC(C=O)C1CCCCC1 (stereo not shown) [Pollenal II, 2-cyclohexylpropanal] | 2 (Inhibition ratio: 20% to 50%)

molecular target: T3, OR2W1 (Homo sapiens, UniProt Q9Y3N9); test: Luciferase reporter gene assay, OR2W1 expressed in HEK293 cells; format: cell-based; conditions: response to hexanoic acid; test substance added together with hexanoic acid; HEK293
T3 construct: expressed in transfected cells; host or cells: HEK293
T3 sequence (Q9Y3N9 1-320): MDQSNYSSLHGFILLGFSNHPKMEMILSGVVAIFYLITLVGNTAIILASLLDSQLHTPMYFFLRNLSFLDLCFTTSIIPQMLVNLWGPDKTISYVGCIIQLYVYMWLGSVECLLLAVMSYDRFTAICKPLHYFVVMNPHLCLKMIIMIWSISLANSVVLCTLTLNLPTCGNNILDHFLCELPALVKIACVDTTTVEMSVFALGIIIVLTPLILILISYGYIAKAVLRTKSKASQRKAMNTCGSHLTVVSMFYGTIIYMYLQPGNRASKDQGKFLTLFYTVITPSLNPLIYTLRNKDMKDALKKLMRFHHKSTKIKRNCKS
Procedure: as §1, §2, §3, §4, §5

Row | Compound | Inhibition ratio of OR2W1 response
6 | COc1ccccc1CCC(C)(C)O [4-(2-Methoxyphenyl)-2-methyl-2-butanol, 4-(2-methoxyphenyl)-2-methyl-2-butanol] | 1 (Inhibition ratio: 50% or higher)
7 | CC1(C)CCCC2=C1CC(C=O)CC2 (stereo not shown) [Cyclemon A, 1,2,3,4,5,6,7,8-octahydro-8,8-dimethyl-2-naphthalenecarboxyaldehyde] | 1 (Inhibition ratio: 50% or higher)
8 | Cc1cccc(CC(C)(C)CO)c1 [Majantol, 2,2-dimethyl-3-(3-methylphenyl)propanol] | 2 (Inhibition ratio: 20% to 50%)

tested on: not listed separately; test: Sensory evaluation test of hexanoic acid odor inhibition; format: in vivo; conditions: hexanoic acid odor; malodor alone rated as 5; 0 to 10 points; test substance diluted 100 times with propylene glycol; three panelists
Procedure: Cotton balls were introduced into a glass bottle (Hakuyo Glass Co., Ltd. No. 11, capacity 110 ml), and hexanoic acid diluted 100 times with propylene glycol, nonanoic acid diluted 10 times with propylene glycol, or isovaleric acid diluted 1000 times with propylene glycol, as a malodor, and a test substance were added dropwise in an amount of […] to the cotton balls. The glass bottle was left to stand overnight at room temperature, and the odor molecules were sufficiently volatilized in the glass bottle. A sensory evaluation test was carried out by a panel of three panelists (5 panelists for isovaleric acid), and while the intensity of odor in the case of adding dropwise the malodor alone was rated as 5, the intensity of the malodor in the case of incorporating a test substance was evaluated on the basis of a system of 20 grades from 0 point to 10 points (0.5 points per grade).
Regarding the test substance, florhydral (Givaudan SA), bourgeonal (Givaudan SA), hydroxycitronellal (Givaudan SA, International Flavors & Fragrances, Inc., and the like), 4-isopropylcyclohexanecarbaldehyde (synthesized according to a method described in JP-A-2-188549), 4-(2-methoxyphenyl)-2-methyl-2-butanol (JP-A-9-111281), florosa (Givaudan SA), isocyclocitral (Givaudan SA, International Flavors & Fragrances, Inc., and the like), tripral (International Flavors & Fragrances, Inc.), and Pollenal II (Kao Corp.), which had been diluted 100 times with propylene glycol, were used for hexanoic acid; florhydral that had been diluted 10 times with propylene glycol was used for nonanoic acid; and florhydral that had been diluted 1000 times with propylene glycol was used for isovaleric acid.

Row | Compound | Intensity of odor
9 | COc1ccccc1CCC(C)(C)O [4-(2-Methoxyphenyl)-2-methyl-2-butanol, 4-(2-methoxyphenyl)-2-methyl-2-butanol] | 3.88
10 | CC(C=O)C1CCCCC1 (stereo not shown) [Pollenal II, 2-cyclohexylpropanal] | 2.08
11 | CC1=CC(C)C(C=O)CC1 (stereo not shown) [Tripral, 2,4-dimethyl-3-cyclohexane-1-carboxyaldehyde] | 2.00

same assay, conditions: sensory test; test substance diluted 100 times with propylene glycol (FIG. 5, Table 4)

Row | Compound | Inhibition of hexanoic acid odor (in words)
12 | COc1ccccc1CCC(C)(C)O [4-(2-Methoxyphenyl)-2-methyl-2-butanol, 4-(2-methoxyphenyl)-2-methyl-2-butanol] | inhibit the hexanoic acid odor
13 | CC(C=O)C1CCCCC1 (stereo not shown) [Pollenal II, 2-cyclohexylpropanal] | inhibit the hexanoic acid odor
14 | CC1=CC(C)C(C=O)CC1 (stereo not shown) [Tripral, 2,4-dimethyl-3-cyclohexane-1-carboxyaldehyde] | inhibit the hexanoic acid odor

molecular target: T4, OR51L1 (Homo sapiens, UniProt Q8NGJ5); test: Luciferase reporter gene assay, OR51L1 expressed in HEK293 cells; format: cell-based; conditions: response to hexanoic acid; test substance added together with hexanoic acid; HEK293
T4 construct: expressed in transfected cells; host or cells: HEK293
T4 sequence (Q8NGJ5 1-315): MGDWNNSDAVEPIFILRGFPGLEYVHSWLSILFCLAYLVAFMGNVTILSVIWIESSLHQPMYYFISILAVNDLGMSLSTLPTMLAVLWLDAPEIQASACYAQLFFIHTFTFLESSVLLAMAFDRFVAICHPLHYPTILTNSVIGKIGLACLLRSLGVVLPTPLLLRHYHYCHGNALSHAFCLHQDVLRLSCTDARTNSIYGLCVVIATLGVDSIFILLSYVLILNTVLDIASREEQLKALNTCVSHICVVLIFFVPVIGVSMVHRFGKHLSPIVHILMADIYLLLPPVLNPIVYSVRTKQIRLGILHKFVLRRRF
Procedure: as §1, §2, §3, §4, §5

Row | Compound | Inhibition ratio of OR51L1 response
15 | COC(C)(C)CCCC(C)CC=O (stereo not shown) [Methoxycitronellal, 7-methoxy-3,7-dimethyloctanal] | 1 (Inhibition ratio: 50% or higher)
16 | CC1=CC(C)C(C=O)CC1 (stereo not shown) [Tripral, 2,4-dimethyl-3-cyclohexane-1-carboxyaldehyde] | 2 (Inhibition ratio: 20% to 50%)
